PubChem BioAssay (NCI)
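48-hour exposure; five concentrations; linearly interpolated endpoints. The concentration for 50% growth inhibition is given as GI50. TGI: total growth inhibition.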

Tests used:
Assay in all cases: inhibition of tumour cell growth, NCI panel, 48 h
[1] = system: MALME-3M melanoma
[2] = system: MOLT-4 leukemia
[3] = system: RXF 393 renal
[4] = system: HCT-116 colon
[5] = system: SNB-19 CNS
[6] = system: RPMI-8226 leukemia
[7] = system: HS 578T breast
[8] = system: NCI/ADR-RES ovarian
[9] = system: K-562 leukemia
[10] = system: SR leukemia

Structure (SMILES) | GI50 [1] [µM] | TGI [1] [µM] | GI50 [2] [µM] | TGI [2] [µM] | GI50 [3] [µM] | TGI [3] [µM] | GI50 [4] [µM] | TGI [4] [µM] | GI50 [5] [µM] | TGI [5] [µM] | GI50 [6] [µM] | TGI [6] [µM] | GI50 [7] [µM] | TGI [7] [µM] | GI50 [8] [µM] | TGI [8] [µM] | GI50 [9] [µM] | TGI [9] [µM] | GI50 [10] [µM] | TGI [10] [µM]
COc1ccc2c(c1)c(-c1nc(-c3cn(C)c4ncccc34)cs1)cn2CCCN1CCCCC1 | 1.64 | 3.25 | 1.71 | 3.36 | 1.68 | 3.29 | 1.68 | 3.05 | 1.9 | 3.52 | 2.19 | 4.64 | 2.24 | 5.8 | 1.76 | 3.46 | 1.64 | 3.4 | 1.81 | 3.77
COc1cc(OC)cc(-c2ccc(-c3ccc(C(=N)N)o3)o2)c1 | 2.04 | 4.21 | 2.44 | 6.7 | 1.93 | 5.24 | 2.51 | 6.11 | 3.02 | 10.6 | 2.25 | 5.68 | 8.12 | 27.3 | 8.26 | 22.4 | 1.98 | 4.47 | 1.68 | 4.36
O=C(NCCOCCOCCNc1cccc2c1C(=O)N(C1CCCNC1=O)C2=O)c1cc2c(o1)C(=O)c1ccccc1C2=O (centres undefined) | 0.176 | 0.401 | 2.4 | 6.01 | 1.8 | 3.99 | 2.06 | 5.54 | 2.42 | 9.84 | 3.29 | 14.1 | 2.43 | 7.19 | 10.3 | 32 | 2.75 | 11.1 | 2.63 | > 100
COc1cnc2cc(C(=O)O)c3c([N+](=O)[O-])cccc3c2c1 | – | > 100 | – | > 100 | – | > 100 | – | > 100 | – | > 100 | – | > 100 | – | > 100 | – | > 100 | – | > 100 | – | > 100
O=C1c2c(c3c4ccccc4n(CCCCCCBr)c3c3[nH]c4ccccc4c23)C(=O)N1O | 2.65 | 7.74 | 1.94 | 5.68 | 3.32 | 14.5 | 2.15 | 10.8 | 4.98 | 21.5 | 1.92 | 5.57 | 5.14 | 45.9 | 2.49 | 7.8 | 2.8 | 10.2 | 1.23 | 4.71
CNC(=O)OCc1c(COC(=O)NC)c(-c2ccc(Cl)c(Cl)c2)n2c1SCC2 | – | 37.8 | – | 47.3 | – | 13.8 | – | 26 | – | > 84.9 | – | 39.7 | – | 51 | – | 40 | – | 52 | – | 39
CCc1c(Oc2ccc(C(C)=O)cc2)c2ccccc2[nH]c1=O | 9.09 | 42.3 | 28 | > 100 | 20.1 | 45.7 | 18.5 | 52.8 | 30.7 | > 100 | 3.65 | > 42.5 | 4.3 | 43.6 | 23 | > 74 | 18.8 | > 76.9 | 9.09 | > 100
O=C1/C(=C/c2ccc(Br)cc2)C=C(c2ccccc2)N1CCc1ccccc1 | 1.5 | 6.64 | 18.4 | > 100 | 1.26 | 3.78 | 0.394 | 11.7 | 1.21 | 5.03 | 9.44 | 86.4 | 0.831 | 5.33 | 1.08 | 8.01 | 2.63 | 20.5 | 11.6 | > 100
CC1CCC2(C(=O)O)CCC3(C)C(=CCC4C5(C)CC(O)C(O)C(C)(CO)C5C(O)CC43C)C2C1C (centres undefined) | – | > 100 | – | > 100 | – | > 64.1 | – | > 24.3 | – | 56.1 | – | 80.4 | – | 41.5 | – | > 100 | – | > 100 | – | > 63.1
O=c1oc2ccc(F)cc2c(=O)n1-c1ccc(F)cc1F | 2.25 | 6.33 | 3.46 | > 100 | 2.52 | 6.99 | 2.86 | 9.6 | 3.5 | > 100 | 2.22 | 7.09 | 2.59 | 8.51 | 3.24 | > 100 | 3.11 | > 100 | 3.69 | > 100
O=C(O)CCCCC(CCSCc1ccccc1)SCc1ccccc1 (centres undefined) | 87.7 | > 100 | 47 | > 100 | 27.3 | > 100 | 37.7 | > 100 | 42.9 | > 100 | 30.6 | 96.7 | 50.3 | > 100 | 48.6 | > 100 | 44.5 | > 100 | 36.1 | > 100
COc1cccc(/C=N/NC(=O)c2ccccc2Nc2ccnc(C(F)(F)F)c2)c1O | 0.964 | 33.6 | 0.196 | 1.19 | 0.728 | 28 | 0.311 | > 67.2 | 2.41 | > 100 | 0.156 | 0.983 | 1.08 | > 46.7 | 0.512 | 27.9 | 0.369 | 12.3 | 0.0477 | 0.417
Cc1cc(N(CCOS(C)(=O)=O)CCOS(C)(=O)=O)ccc1C=Nc1ccc(-c2nc(Cc3ccccc3)sc2C)cc1 | – | 26.8 | – | 22.4 | – | 4.92 | – | 35 | – | 43.9 | – | 31.8 | – | 34.6 | – | 47.8 | – | 65.5 | – | 18.5
O=C(Nc1ccc(N2CCNCC2)cc1)c1[nH]ncc1Nc1cc(Oc2ccccc2)ncn1 | 1.98 | 4.93 | 2.05 | 5.28 | 1.75 | 3.33 | 1.42 | 2.99 | 3.19 | 12.5 | 1.5 | 3.88 | 3.06 | 14.8 | 12 | 39.2 | 2.22 | 10.9 | 0.299 | 1.84
O=C(CN1CCOCC1)Nc1ccc(Cn2nnc3c2C(=O)c2nnn(Cc4ccc(NC(=O)CN5CCOCC5)cc4)c2C3=O)cc1 | 0.178 | 0.469 | 0.254 | 0.705 | 1.34 | 2.92 | 0.316 | 1.16 | 0.41 | 1.57 | 0.365 | 2.24 | 1.94 | 8.34 | > 100 | > 100 | 0.745 | > 100 | 0.516 | 3.97
CC1=C(CCCNS(C)(=O)=O)C2=C(C)C3(CC3)[C@@](C)(O)C(=O)C2=C1 | 0.776 | 2.62 | 37.2 | > 100 | 0.199 | 0.419 | 0.863 | > 100 | 1.93 | > 100 | > 64.5 | > 100 | 2.73 | 11.1 | 1.38 | 18.1 | 61.8 | > 100 | 36.2 | > 100
O=NN(Cc1ccc(Cl)cc1)C(C(=O)O)c1ccccc1 (centres undefined) | – | > 100 | – | > 100 | – | > 100 | – | > 100 | – | > 100 | – | > 100 | – | > 100 | – | > 100 | – | > 100 | – | > 100
CCOc1cccc(/C=N/NC(=O)c2ccccc2Nc2ccnc(C(F)(F)F)c2)c1O | 0.835 | 43.6 | 0.116 | 0.459 | 11.5 | > 100 | 0.336 | > 51.9 | 2.04 | > 100 | 0.332 | – | 6.92 | > 100 | 0.506 | 26.3 | 0.322 | 10.4 | 0.0576 | 0.363
Cc1c(C(=O)N/N=C/c2ccc(Cl)cc2)nnn1-c1ccnc2c(C(F)(F)F)cccc12 | 1.53 | 4.4 | 6.39 | 35.3 | 3.06 | 11.2 | 2.31 | 5.42 | 12.1 | 30.2 | 4.2 | 31.1 | 3.62 | 12 | 3.86 | 13.8 | 5.74 | 42.2 | 3.6 | 12.3
